Source: patent US10808008B2, “Aromatic-cationic peptides and uses of same” (Cornell University, priority 2012, dated 2020)
“Also recorded” adds a separate entry of the source.

Tests used:
[1] = Fluorescence spectroscopy of labelled peptides with cardiolipin; format: binding
Excerpt: The peptides 2′,6′-Dmt-D-Arg-[…] (SS-19) and 2′,6′-Dmt-D-Arg-Phe-Lys-Ald-NH2 (SS-37) cationic peptides carry net positive charge at neutral pH. They are expected to associate with anionic phospholipid cardiolipin based on electrostatic interaction. The interaction of small peptides with lipid membranes can been studied using fluorescence spectroscopy (Surewicz and Epand, 1984). […] Polarity-sensitive fluorescent probes were incorporated into the peptides and fluorescence spectroscopy was used to determine if SS-19, SS-37 and SS-36 interact with CL.
The peptide 2′,6′-Dmt-D-Arg-Phe-(atn)Dap-NH2 (SS-19) contains anthraniloyl incorporated into diaminopropionic acid. Anthraniloyl derivatives fluoresce in the 410-420 nm range when excited at 320-330 nm (Hiratsuka T, 1983). The quantum yield of anthraniloyl derivatives is strongly dependent on the local environment, and can increase 5-fold going from water to 80% ethanol, together with a blue shift in the emission maxima (λ max) of <10 nm (Hiratsuka T, 1983). Fluorescence emission spectrum of SS-19 (1 μM) alone, and in the presence of increasing concentrations of CL (5 to 50 μg/ml), was monitored following excitation at 320 nm using Hitachi F-4500 fluorescence spectrophotometer.
The peptide 2′,6′-Dmt-D-Arg-Phe-Lys-Ald-NH2 (SS-37) contains an additional amino acid, aladan (Ald), which has been reported to be particularly sensitive to the polarity of its environment and it has been used to probe the electrostatic character of proteins (Cohen et al., 2002). When excited at 350 nm, λmax shifts from 542 nm in water to 409 nm in heptane, accompanied by a significant increase in quantal yield (Cohen et al., 2001). Fluorescence emission spectrum of SS-37 (1 μM) alone, and in the presence of increasing concentrations of CL, was monitored following excitation at 350 nm. Addition of CL (5 to 50 μg/ml) led to a 3-fold increase in quantal yield of SS-37 as well as a clear blue shift in λ max, from 525 nm without CL to 500 nm with 50 μg/ml CL (FIG. 11B).
The peptide 2′,6′-Dmt-D-Arg-Ald-Lys-NH2 (SS-36) contains Ald in place Phe^3 in SS-02. Fluorescence emission spectrum of SS-36 (1 μM) alone, and in the presence of increasing concentrations of CL, was monitored following excitation at 350 nm. SS-36 was the most sensitive to the addition of CL, with dramatic increase in quantal yield and blue shift observed with much lower added amounts of CL (1.25 to 5 μg/ml). The λmax shifted from 525 nm without CL to 500 nm with as little as 1.25 μg/ml CL, and quantal yield increased by more than 100-fold with the addition of 5 μg/ml of CL (FIG. 11C). […] Accordingly, aromatic-cationic peptides of the present disclosure are useful for the prevention or treatment of diseases or disorders characterized by dysregulation of cardiolipin.
Changes in the emission intensity of the [atn]SS-02 and the [ald]SS-02 were measured using a Hitachi F-4500 fluorescence spectrophotometer. The different solvents used to dissolve the various phospholipids (chloroform, methanol and ethanol) had negligible effect on the fluorescence spectrum of [atn]SS-02 and [ald]SS-02. All experiments were done in low ionic solution (deionized water) to optimize electrostatic interactions of peptides with phospholipids.
Increasing concentrations of cardiolipin (5, 10, 25, and 50 μg/mL) were added to 1 μM [atn]SS-02, and the emission intensity between 350 nm and 500 nm was measured.

[2] = target: T1, cytochrome c and cardiolipin (CL) (Equus caballus, UniProt P00004); assay: Fluorescence quenching by cytochrome c in the presence of cardiolipin; format: binding, horse
T1 construct: from tissue; host or cells: horse heart
Protocol: Fluorescence emission of SS-19 (10 μM) was monitored in real time (Ex/Em=320 nm/420 nm) using Hitachi F-4500 fluorescence spectrophotometer. […] CL may potentiate the interaction between SS-19 and cytochrome c by serving as an anionic platform for the two cationic molecules.
The quenching by cytochrome c was not displaced by sequential additions of bovine serum albumin (500 μg/ml) (FIG. 13C, A+arrows).
SS-36 also contains the polarity-sensitive fluorescent amino acid aladan. […] Accordingly, aromatic-cationic peptides of the present disclosure are useful for the prevention or treatment of diseases or disorders characterized by dysregulation of cardiolipin and/or cytochrome c, and/or diseases or disorders characterized by dysregulation of the cardiolipin/cytochrome c interaction.
(§1) Interaction of SS peptides with horse heart cytochrome c in the absence or presence of free cardiolipin or cardiolipin/POPC (1:1) liposomes (prepared as described in Example 22) was examined by fluorescence quenching of [atn]SS-02 (λex/λem=320/420 nm) and [ald]SS-02 (λex/λem=360/510 nm) upon addition of cytochrome c (using a Hitachi F-4500 fluorescence spectrophotometer). The solvents used to dissolve cardiolipin and POPC had negligible effect on cytochrome c-dependent quenching of these peptides. All experiments were done in low ionic solution (deionized water) or 20 mM Hepes pH 7.4.

cytochrome c = cytochrome c (Equus caballus, UniProt P00004); assay: Fluorescence quenching of labelled peptides by cytochrome c; format: binding, horse; parameters: from tissue; host or cells: horse heart; details: for change in λmax on quenching by cytochrome c / quenching of fluorescence by cytochrome c: Example 22; for quenching of fluorescence by cytochrome c: additions of cytochrome c (2 μM)
Protocol: Maximal fluorescence emission of SS-19 was monitored at 420 nm following excitation at 320 nm using Hitachi F-4500 fluorescence spectrophotometer.
The quenching by cytochrome c was not displaced by sequential additions of bovine serum albumin (FIG. 12C, A+arrows) (500 μg/ml). […] Accordingly, aromatic-cationic peptides of the present disclosure are useful for the prevention or treatment of diseases or disorders characterized by dysregulation of cytochrome c.
Fluorescence emission of SS-19 (10 μM) was monitored in real time (Ex/Em=320 nm/420 nm) using Hitachi F-4500 fluorescence spectrophotometer.
as §1

cytochrome c, sequence (P00004 2-105 limits assumed): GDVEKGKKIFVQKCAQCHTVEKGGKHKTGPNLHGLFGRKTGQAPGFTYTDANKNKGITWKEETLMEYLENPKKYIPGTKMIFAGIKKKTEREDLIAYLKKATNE
T1 sequence (P00004 2-105 limits assumed): as above

Substance	increase in quantal yield on addition of CL ([1]; 1 μM peptide, 5 μg/ml CL, excitation 350 nm)	affinity compared among POPS, POPA, DPPG and cardiolipin ([1]; 1 μM peptide, 10 μg/mL phospholipid)	peptide fluorescence on addition of CL ([1]; CL 2.5 μg/ml)	emission maximum with cardiolipin after addition of cytochrome c [2] [nm]	emission maximum with cardiolipin before addition of cytochrome c [2] [nm]	quenching of fluorescence by cytochrome c in the presence of CL ([2]; CL 2.5 μg/ml, cytochrome c 2 μM)	change in λmax on quenching by cytochrome c (cytochrome c)	quenching of fluorescence by cytochrome c (cytochrome c)	shift in λmax on addition of CL ([1]; 1 μM peptide, CL 5-50 μg/ml, excitation 320 nm)	increase in quantal yield on addition of CL ([1]; 1 μM peptide, CL 5 to 50 μg/ml) [fold]	emission intensity on addition of cardiolipin ([1]; 1 μM peptide, deionized water (Example 21))	peptide fluorescence on addition of CL ([1]; 10 μM peptide, CL 50 μg/ml, Ex/Em 320/420 nm)	quenching of the fluorescent signal ([2]; 2 μM cytochrome c, 1 μM peptide, 10 μg/mL cardiolipin, 420 nm) [%]	extent of quenching by cytochrome c with CL compared to without CL ([2]; 10 μM peptide, CL 50 μg/ml, cytochrome c 2 μM)	effect of cardiolipin on interaction between cytochrome c and peptide ([2]; free cardiolipin or cardiolipin liposomes)	dependence of interaction on amount of cytochrome c (cytochrome c)	quenching of the fluorescent signal (cytochrome c; 2 μM cytochrome c, 1 μM peptide, absence of cardiolipin, 420 nm) [%]	quenching of peptide fluorescence by cytochrome c (cytochrome c; 10 μM peptide, 2 μM cytochrome c, Ex/Em 320/420 nm)	displacement of cytochrome c quenching by bovine serum albumin (cytochrome c; BSA 500 μg/ml)
2′,6′-Dmt-D-Arg-Ald-Lys-NH2 [SS-36]	more than 100 fold	Cardiolipin shows the highest affinity	increase in SS-36 fluorescence	450	510	dramatic quenching	no change in λmax	concentration-dependent quenching											
2′,6′-Dmt-D-Arg-Phe-(atn)Dap-NH2 [SS-19]							no change in λmax	concentration-dependent quenching	no significant shift in λmax	2	increased the emission intensity of [atn]SS-02 in a concentration-dependent manner	increase in SS-19 fluorescence	~50	larger extent of quenching	potentiated by either free cardiolipin or cardiolipin liposomes in a dose-dependent manner	linearly dependent on the amount of cytochrome c added	~20	similarly quenched by sequential addition of 2 μM cytochrome c; also recorded: immediate quenching of the fluorescence signal	not displaced
